Patent publication US20050124622A1, “Compounds and methods for the treatment of pain” (priority 1999, published 2005)
pKi: −log10 of the molar value.

Target: T1, NMDA receptor glycine site (Rattus norvegicus, UniProt P35439)
T1 construct: brain membranes bearing the receptor; tissue Analytical Biological Services Inc; host or cells: rat brain (cerebral cortex and hippocampus) membranes
Assay: Test A: Inhibition of binding of [3H]-MDL105,519 to brain membranes
Conditions: not given
From the text: Test A: Inhibition of Binding of [^3H]-MDL105,519:
Binding of compounds to the NMDA receptor glycine site may be assessed by measuring the ability of test compounds to inhibit the binding of tritiated MDL105,519 to brain membranes bearing the receptor.
Briefly, fresh brain tissue including cerebral cortex and hippocampus from male Sprague Dawley rats was homogenized in 0.32 M sucrose and centrifuged at low speed to separate cellular membranes from other cellular components. The membranes were then washed 3 times using deionized water, followed by treatment with 0.04% Triton X-100. Finally, membranes were washed six times in 50 mM Tris citrate buffer, pH 7.4, and frozen at −80° C. until use.
[^3H]MDL105,519 (72 Ci/mmol) was purchased from Amersham. Cold MDL105,519 was purchased from Sigma/RBI. […] On the day of the experiment, brain membranes were thawed at room temperature and suspended in 50 mM tris acetate buffer, pH 7.4 (“TAB”). Seventy-five micro grams per milliliter protein (by using the BioRad dye) were used for competition binding. The experiments were carried out using 96-well plates. […] Non specific binding was determined by using 100 μM of unlabeled MDL105,519. […] After incubation, unbound [^3H]MDL105,519 was removed by filtration onto GF/B Unifilter plates using a Packard harvester. Filters were washed four times with ice cold TAB (total of 1.2 mL buffer). The plates were dried overnight at room temperature and bound radioactivity was measured on a Packard TopCount after the addition of 45 μL per well of the MICROSCINT O.
Human Brain Membranes: Human brain membranes were obtained from Analytical Biological Services Inc., and assays were performed as described for rat membranes.
Data analysis: Data was analyzed using a Microsoft Excel spreadsheet and GraphPad Prizm software and potency of compounds is expressed as the Ki (nM).

O=C(NN=Cc1ccc(Cn2nc(O)c3[nH]c4cc(Cl)ccc4c(=O)c3c2=O)cc1)c1ccccc1 [Ex. 10] was tested. Which pKi did it give?
Its pKi is 7.04.

How did the pKi turn out when Cc1ncc(CO)c(Cn2nc(O)c3[nH]c4cc(Cl)ccc4c(=O)c3c2=O)c1O [Ex. 3, 7-Chloro-4-hydroxy-2-[3-hydroxy-5(hydroxymethyl)-2-methyl(4-pyridyl)]methyl-1,2,5,10-tetrahydropyridazino[4,5-b]quinoline-1,10-dione Methanesulfonate] was run?
Its pKi is 5.94.

With O=c1c2ccc(Cl)cc2[nH]c2c(O)nn(CC3CCCO3)c(=O)c12 (racemic) [Ex. 4, 7-Chloro-4-hydroxy-2-(tetrahydro-furan-2-ylmethyl)-1,2,5,10-tetrahydropyridazino[4,5-b]quinoline-1,10-dione] as the compound, how does the pKi read?
Its pKi is 6.35.

With Cc1cc(C)c(S(=O)(=O)NN=Cc2ccc(Cn3nc(O)c4[nH]c5cc(Cl)ccc5c(=O)c4c3=O)cc2)c(C)c1 [Ex. 11, 2-{[4-(2-Aza-2-{[(2,4,6-trimethylphenyl)sulfonyl]amino}vinyl)phenyl]methyl}-7-chloro-4-hydroxy-2,5-dihydropyridazino[4,5-b]quinoline-1,10-dione] as the compound, how does the pKi read?
Its pKi is 6.64.

With O=c1c2ccc(Cl)cc2[nH]c2c(O)nn(Cc3ccc(-c4nnco4)cc3)c(=O)c12 [Ex. 1, 7-Chloro-4-hydroxy-2-(4-[1,3,4]oxadiazol-2-yl-benzyl)-1,2,5,10-tetrahydropyridazino[4,5-b]quinoline-1,10-dione] as the compound, how does the pKi read?
The pKi was 7.02.

How did the pKi turn out when CC(C)(C)OC(=O)NN=Cc1ccc(Cn2nc(O)c3[nH]c4cc(Cl)ccc4c(=O)c3c2=O)cc1 [Ex. 8] was run?
Its pKi is 6.91.

O=Cc1ccc(Cn2nc(O)c3[nH]c4cc(Cl)ccc4c(=O)c3c2=O)cc1 [Ex. 7, 4-[(7-Chloro-4-hydroxy-1,10-dioxo-2.5-dihydropyridazino[4,5-b]quinolin-2-yl)methyl]benzaldehyde] was tested. Which pKi did it give?
The pKi was 6.76.

With O=c1c2ccc(Cl)cc2[nH]c2c(O)nn(Cc3ccc(C=NNc4ccccn4)cc3)c(=O)c12 [Ex. 9, 2-{[4-[2-Aza-2-(2-pyridylamino)vinyl]phenyl}methyl)-7-chloro-4-hydroxy-2,5-dihydropyridazino[4,5-b]quinoline-1,10-dione] as the compound, how does the pKi read?
Its pKi is 6.80.

Same assay, conditions: inhibition of 1.2 nM [3H]MDL105,519 binding to brain membranes, 30 minutes at room temperature

How did the pKi turn out when COc1ccc(-c2nnc(Cn3nc(O)c4[nH]c5cc(Cl)ccc5c(=O)c4c3=O)o2)cc1 [Ex. 5, 7-Chloro-4-hydroxy-2-[5-(4-methoxy-phenyl)-[1,3,4]oxadiazol-2-ylmethyl]-1,2,5,5,10-tetrahydropyridazino[4,5-b]quinoline-1,10-dione] was run?
The pKi was 6.84.

How did the pKi turn out when O=c1c2ccc(Cl)cc2[nH]c2c(O)nn(Cc3cccc(-c4nnn[nH]4)c3)c(=O)c12 [Ex. 2, 7-Chloro-4-hydroxy-2-[3-(1H-tetrazol-5-yl)-benzyl]-1,2,5,10-tetrahydropyridazino[4.5-b]quinoline-1,10-dione.] was run?
Its pKi is 7.37.
